Measurements from US20240252454A1, “COMPOSITION COMPRISING AN INHIBITOR OF MITOCHONDRIAL TRANSCRIPTION” (LEAD DISCOVERY CENTER GMBH, priority 2021, published 2024).

Legend:
Test in all cases: SRB assay, IMT combined with inhibitor
Assay type in all cases: cell-based
SKMEL28 = SKMEL28 (skin); concentration series of the labelled inhibitor + fixed concentration of IMT (3S)-1-[(2R)-2-[4-(2-chloro-4-fluoro-phenyl)-2-oxo-chromen-7-yl]oxypropanoyl]piperidine-3-carboxylic acid (Table 3: 40 nM, 120 h); negative=synergistic, positive=antagonistic
Procedure, shortened: (§1)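 SRB biomass readout; 120 h exposure; 5 mM glucose medium; ≥2 independent replicates. MAPK SOC dilution series + fixed 40 nM (3S)-1-[(2R)-2-[4-(2-chloro-4-fluoro-phenyl)-2-oxo-chromen-7-yl]oxypropanoyl]piperidine-3-carboxylic acid; untreated cells as negative control.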

GRANTA-519 = GRANTA-519 (hematological); concentration series of the labelled inhibitor + fixed concentration of IMT (3S)-1-[(2R)-2-[4-(2-chloro-4-fluoro-phenyl)-2-oxo-chromen-7-yl]oxypropanoyl]piperidine-3-carboxylic acid (Table 3: 40 nM, 120 h); negative=synergistic, positive=antagonistic
Procedure, shortened: as §1

IMR90 = IMR90 (lung); concentration series of the labelled inhibitor + fixed concentration of IMT (3S)-1-[(2R)-2-[4-(2-chloro-4-fluoro-phenyl)-2-oxo-chromen-7-yl]oxypropanoyl]piperidine-3-carboxylic acid (Table 3: 40 nM, 120 h); negative=synergistic, positive=antagonistic
Procedure, shortened: as §1

HCT15 = HCT15 (colon); concentration series of the labelled inhibitor + fixed concentration of IMT (3S)-1-[(2R)-2-[4-(2-chloro-4-fluoro-phenyl)-2-oxo-chromen-7-yl]oxypropanoyl]piperidine-3-carboxylic acid (Table 3: 40 nM, 120 h); negative=synergistic, positive=antagonistic
Procedure, shortened: as §1

BXPC3 = BXPC3 (pancreas); concentration series of the labelled inhibitor + fixed concentration of IMT (3S)-1-[(2R)-2-[4-(2-chloro-4-fluoro-phenyl)-2-oxo-chromen-7-yl]oxypropanoyl]piperidine-3-carboxylic acid (Table 3: 40 nM, 120 h); negative=synergistic, positive=antagonistic
Procedure, shortened: as §1

PANC1 = PANC1 (pancreas); concentration series of the labelled inhibitor + fixed concentration of IMT (3S)-1-[(2R)-2-[4-(2-chloro-4-fluoro-phenyl)-2-oxo-chromen-7-yl]oxypropanoyl]piperidine-3-carboxylic acid (Table 3: 40 nM, 120 h); negative=synergistic, positive=antagonistic
Procedure, shortened: as §1

HT29 = HT29 (colon); concentration series of the labelled inhibitor + fixed concentration of IMT (3S)-1-[(2R)-2-[4-(2-chloro-4-fluoro-phenyl)-2-oxo-chromen-7-yl]oxypropanoyl]piperidine-3-carboxylic acid (Table 3: 40 nM, 120 h); negative=synergistic, positive=antagonistic
Procedure, shortened: as §1

MIAPACA2 = MIAPACA2 (pancreas); concentration series of the labelled inhibitor + fixed concentration of IMT (3S)-1-[(2R)-2-[4-(2-chloro-4-fluoro-phenyl)-2-oxo-chromen-7-yl]oxypropanoyl]piperidine-3-carboxylic acid (Table 3: 40 nM, 120 h); negative=synergistic, positive=antagonistic
Procedure, shortened: as §1

A549 = A549 (lung); concentration series of the labelled inhibitor + fixed concentration of IMT (3S)-1-[(2R)-2-[4-(2-chloro-4-fluoro-phenyl)-2-oxo-chromen-7-yl]oxypropanoyl]piperidine-3-carboxylic acid (Table 3: 40 nM, 120 h); negative=synergistic, positive=antagonistic
Procedure, shortened: as §1

SKOV3 = SKOV3 (ovary); concentration series of the labelled inhibitor + fixed concentration of IMT (3S)-1-[(2R)-2-[4-(2-chloro-4-fluoro-phenyl)-2-oxo-chromen-7-yl]oxypropanoyl]piperidine-3-carboxylic acid (Table 3: 40 nM, 120 h); negative=synergistic, positive=antagonistic
Procedure, shortened: as §1

A673 = A673 (muscle); concentration series of the labelled inhibitor + fixed concentration of IMT (3S)-1-[(2R)-2-[4-(2-chloro-4-fluoro-phenyl)-2-oxo-chromen-7-yl]oxypropanoyl]piperidine-3-carboxylic acid (Table 3: 40 nM, 120 h); negative=synergistic, positive=antagonistic
Procedure, shortened: as §1

SW620 = SW620 (colon); concentration series of the labelled inhibitor + fixed concentration of IMT (3S)-1-[(2R)-2-[4-(2-chloro-4-fluoro-phenyl)-2-oxo-chromen-7-yl]oxypropanoyl]piperidine-3-carboxylic acid (Table 3: 40 nM, 120 h); negative=synergistic, positive=antagonistic
Procedure, shortened: as §1

COLO205 = COLO205 (colon); concentration series of the labelled inhibitor + fixed concentration of IMT (3S)-1-[(2R)-2-[4-(2-chloro-4-fluoro-phenyl)-2-oxo-chromen-7-yl]oxypropanoyl]piperidine-3-carboxylic acid (Table 3: 40 nM, 120 h); negative=synergistic, positive=antagonistic
Procedure, shortened: as §1

LOVO = LOVO (colon); concentration series of the labelled inhibitor + fixed concentration of IMT (3S)-1-[(2R)-2-[4-(2-chloro-4-fluoro-phenyl)-2-oxo-chromen-7-yl]oxypropanoyl]piperidine-3-carboxylic acid (Table 3: 40 nM, 120 h); negative=synergistic, positive=antagonistic
Procedure, shortened: as §1

SMILES | difference between the calculated combinatorial index (BLISS) and the observed combinatorial effect (SKMEL28) | difference between the calculated combinatorial index (BLISS) and the observed combinatorial effect (GRANTA-519) | difference between the calculated combinatorial index (BLISS) and the observed combinatorial effect (IMR90) | difference between the calculated combinatorial index (BLISS) and the observed combinatorial effect (HCT15) | difference between the calculated combinatorial index (BLISS) and the observed combinatorial effect (BXPC3) | difference between the calculated combinatorial index (BLISS) and the observed combinatorial effect (PANC1) | difference between the calculated combinatorial index (BLISS) and the observed combinatorial effect (HT29) | difference between the calculated combinatorial index (BLISS) and the observed combinatorial effect (MIAPACA2) | difference between the calculated combinatorial index (BLISS) and the observed combinatorial effect (A549) | difference between the calculated combinatorial index (BLISS) and the observed combinatorial effect (SKOV3) | difference between the calculated combinatorial index (BLISS) and the observed combinatorial effect (A673) | difference between the calculated combinatorial index (BLISS) and the observed combinatorial effect (SW620) | difference between the calculated combinatorial index (BLISS) and the observed combinatorial effect (COLO205) | difference between the calculated combinatorial index (BLISS) and the observed combinatorial effect (LOVO)
Cn1cnc2c(F)c(Nc3ccc(Br)cc3Cl)c(C(=O)NOCCO)cc21 [Selumetinib] | 0.0096 | 0.0050 | −0.0291 | 0.0320 | −0.0219 | 0.0867 | 0.0236 | −0.0734 | −0.0519 | 0.0622 | 0.0313 | −0.0547 | 0.0142 | −0.0877
CC(=O)Nc1cccc(-n2c(=O)n(C3CC3)c(=O)c3c(Nc4ccc(I)cc4F)n(C)c(=O)c(C)c32)c1 [Trametinib] | 0.0296 | −0.0185 | 0.0533 | 0.0677 | 0.0889 | 0.0596 | 0.0338 | 0.1602 | −0.0142 | −0.0444 | 0.0225 | 0.0028 | 0.0319 | −0.0287
CC(C)Nc1cc(-c2c[nH]c(C(=O)N[C@H](CO)c3cccc(Cl)c3)c2)c(Cl)cn1 [Ulixertinib] | 0.0022 | 0.0393 | 0.0678 | −0.0215 | 0.0946 | 0.0634 | 0.0702 | 0.0431 | −0.0185 | 0.0284 | 0.0876 | 0.0256 | 0.0384 | 0.0039
